In patent publication US9181223B2, “2-aminopyrimidin-6-ones and analogs exhibiting anti-cancer and anti-proliferative activities” (Deciphera Pharmaceuticals, LLC, priority 2013, dated 2015):
Read-outs that look alike come from different tables or passages of the source.

Legend:
osteoclast precursors = test: Osteoclast tartrate-resistant acid phosphatase assay; assay type: cell-based; conditions: tartrate-resistant acid phosphatase activity, RANKL and M-CSF, 7-14 days
Experimental: Osteoclast Tartrate-Resistant Acid Phosphatase Assay
A serial dilution of test compound was dispensed into a 384-well black clear bottom plate (Nalge Nunc International, Rochester, N.Y.). Compound was diluted by the addition of DMEM media supplemented with 10% characterized fetal bovine serum (Invitrogen, Carlsbad, Calif.). Diluted compound was transferred to a 384-well black clear bottom plate. Two-thousand five hundred osteoclast precursors (Lonza, Walkersville, Md.) were added per well in growth media containing Receptor Activator of Nuclear Factor Kappa-beta ligand (RANKL) and M-CSF (R&D Systems, Minneapolis, Minn.). Plates were incubated for 7-14 days at 37 degrees Celsius, 5% CO2, and 95% humidity to allow differentiation of osteoclast precursors. At the end of the incubation period, 10 μL of supernatant from each well was transferred to a clear 384-well plate. Tartrate-resistant acid phosphatase activity in the supernatant samples was determined using an acid phosphatase assay kit (Sigma, St. Louis, Mo.). Absorbance was measured at 550 nm using a plate reader. Data was analyzed using Prism software (Graphpad, San Diego, Calif.) to calculate IC50 values.

[1] = molecular target: T1, unphosphorylated PDGFRβ kinase (uPDGFRβ, Seq. ID No. 3) (Homo sapiens, UniProt P09619); test: uPDGFRβ kinase assay (ADP production coupled to pyruvate kinase/lactate dehydrogenase); assay type: biochemical; conditions: enzymatic assay, ATP 500 μM
T1 construct: purchased DeCode
T1 sequence (P09619 557-1106): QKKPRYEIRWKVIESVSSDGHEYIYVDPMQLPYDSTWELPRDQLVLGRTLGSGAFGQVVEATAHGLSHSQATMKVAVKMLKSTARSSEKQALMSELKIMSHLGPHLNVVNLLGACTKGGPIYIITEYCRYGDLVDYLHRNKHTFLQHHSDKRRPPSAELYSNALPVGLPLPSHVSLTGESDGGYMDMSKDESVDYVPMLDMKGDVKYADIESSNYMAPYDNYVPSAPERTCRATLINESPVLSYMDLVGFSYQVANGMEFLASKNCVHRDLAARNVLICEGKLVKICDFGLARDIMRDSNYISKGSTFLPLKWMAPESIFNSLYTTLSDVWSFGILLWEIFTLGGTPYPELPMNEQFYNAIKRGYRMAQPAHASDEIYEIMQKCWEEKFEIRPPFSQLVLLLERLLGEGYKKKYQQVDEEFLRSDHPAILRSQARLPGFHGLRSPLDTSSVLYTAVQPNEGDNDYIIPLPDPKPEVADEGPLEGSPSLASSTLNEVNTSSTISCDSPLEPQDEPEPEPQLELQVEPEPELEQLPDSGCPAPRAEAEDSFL
Experimental: Unphosphorylated […]β) Kinase (Seq. ID No. 3) Assay Activity of unphosphorylated PDGFRβ kinase ([…] No. 3) was determined by following the production of ADP from the kinase reaction with ATP and poly E4Y as substrates through coupling with the pyruvate kinase/lactate dehydrogenase system (e.g., Schindler et al. Science (2000) 289: 1938-1942). In this assay, the oxidation of NADH (thus the decrease at A340 nm) was continuously monitored spectrophometrically. The reaction mixture (100 μL) contained PDGFRβ (DeCode, 15.7 nM), polyE4Y (2.5 mg/mL), MgCl2 (10 mM), pyruvate kinase (4 units), lactate dehydrogenase (0.7 units), phosphoenol pyruvate (1 mM) and NADH (0.28 mM) and ATP (500 μM) in a 90 mM Tris buffer containing 0.2% octyl-glucoside and 1% DMSO, at pH 7.5. The inhibition reaction was started by mixing serial diluted test compound with the above reaction mixture. The absorption at 340 nm was monitored continuously for 4 h at 30° C. on a Polarstar Optima or Synergy 2 plate reader. The reaction rate was calculated using the 1.5 to 2.5 h time frame. Percent inhibition was obtained by comparison of reaction rate with that of a control (i.e. with no test compound). IC50 values were calculated from a series of percent inhibition values determined at a range of inhibitor concentrations using software routines as implemented in the GraphPad Prism software package.

[2] = molecular target: T2, unphosphorylated c-KIT kinase (uKIT, Seq. ID no. 2) (Homo sapiens, UniProt P10721); test: uKit kinase assay (ADP production coupled to pyruvate kinase/lactate dehydrogenase); assay type: biochemical
T2 construct: uKit with N-terminal GST fusion used for screening
T2 sequence (P10721 with tags, fused parts or gaps): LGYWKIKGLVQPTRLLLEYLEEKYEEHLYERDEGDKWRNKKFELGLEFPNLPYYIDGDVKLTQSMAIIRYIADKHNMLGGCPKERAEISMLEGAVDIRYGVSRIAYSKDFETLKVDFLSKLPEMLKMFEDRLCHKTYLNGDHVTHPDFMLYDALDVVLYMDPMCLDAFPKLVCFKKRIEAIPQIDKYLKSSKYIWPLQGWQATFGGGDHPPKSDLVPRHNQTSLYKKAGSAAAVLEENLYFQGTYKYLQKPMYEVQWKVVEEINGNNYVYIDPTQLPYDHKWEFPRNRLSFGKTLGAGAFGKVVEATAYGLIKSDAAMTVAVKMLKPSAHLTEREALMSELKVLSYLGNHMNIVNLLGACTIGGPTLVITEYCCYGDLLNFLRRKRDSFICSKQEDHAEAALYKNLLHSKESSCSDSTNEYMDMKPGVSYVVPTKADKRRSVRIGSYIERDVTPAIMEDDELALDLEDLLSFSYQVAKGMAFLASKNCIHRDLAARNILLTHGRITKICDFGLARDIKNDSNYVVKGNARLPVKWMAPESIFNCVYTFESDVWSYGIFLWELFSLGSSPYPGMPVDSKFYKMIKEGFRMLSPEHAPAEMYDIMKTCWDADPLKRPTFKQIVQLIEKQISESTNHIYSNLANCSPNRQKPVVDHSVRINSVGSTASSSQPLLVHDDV
Experimental: In this assay, the oxidation of NADH (thus the decrease at A340 nm) was continuously monitored spectrophometrically. […] The inhibition reaction was started by mixing serial diluted test compound with the above reaction mixture. The absorption at 340 nm was monitored continuously for 4 hours at 30° C. on Synergy 2 plate reader (BioTech).

PC-3 M-luc cells = test: PC-3 peritibial implant model of cancer bone metastasis; assay type: in vivo, mouse; conditions: oral dose of 30 mg/kg twice daily for 39 days; scale 0-4; vehicle-treated animals 4
Excerpt: PC-3 Peritibial Implant Model of Cancer Bone Metastasis To evaluate in vivo anti-cancer activity of compounds of formula I, the PC-3 M-luc peritibial injection model of bone invasiveness model was employed. Briefly, PC-3 M-luc cells were obtained from Xenogen Corporation (Caliper Life Sciences) and expanded using MEM media modified with L-Glutamine (Cell Gro® #10-045-CV) supplemented with 10% fetal bovine serum, 1% penicillin-streptomycin-glutamine, 1% non-essential amino acids, and 1% MEM vitamins in 5% CO2 atmosphere at 37° C. Six to 7 week old male nude mice (Crl:NU-Foxnlnu) were obtained from Charles River Laboratories. Test mice were implanted peritibially on Day 0 with 1×10^6 cells/mouse (0.1 ml) using an insulin syringe with a fixed 28-gauge needle. The needle was inserted at the ankle between the tibia and fibula until the bevel of the needle reached approximately half way between the knee and ankle. Treatments began on Day 0. Animals were dosed by oral gavage twice daily for the study duration. All procedures carried out in this experiment were conducted in compliance with all the laws, regulations and guidelines of the National Institutes of Health (NIH). […]

[3] = molecular target: T3, unphosphorylated c-FMS kinase (uFMS, Seq. ID no. 1) (Homo sapiens, UniProt P07333); test: uFMS kinase assay (ADP production coupled to pyruvate kinase/lactate dehydrogenase); assay type: biochemical; conditions: enzymatic assay, ATP 500 μM
T3 construct: purchased Millipore
T3 sequence (P07333 538-972): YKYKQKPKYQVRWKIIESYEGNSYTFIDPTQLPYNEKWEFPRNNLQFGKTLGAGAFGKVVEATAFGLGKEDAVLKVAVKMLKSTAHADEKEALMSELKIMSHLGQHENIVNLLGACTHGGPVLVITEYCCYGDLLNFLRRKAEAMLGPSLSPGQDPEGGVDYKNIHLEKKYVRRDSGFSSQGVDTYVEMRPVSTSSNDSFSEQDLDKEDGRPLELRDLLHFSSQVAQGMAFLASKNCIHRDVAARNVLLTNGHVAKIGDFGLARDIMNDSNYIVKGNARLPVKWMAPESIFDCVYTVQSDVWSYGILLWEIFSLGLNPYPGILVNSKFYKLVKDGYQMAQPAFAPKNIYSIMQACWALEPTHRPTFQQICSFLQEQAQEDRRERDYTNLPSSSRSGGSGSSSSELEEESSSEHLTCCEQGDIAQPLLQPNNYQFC
Experimental: uFMS Kinase (Seq. ID No. 1) Assay
In this assay, the oxidation of NADH (thus the decrease at A340 nm) was continuously monitored spectrophometrically. The reaction mixture (100 μL) contained FMS (purchased from Millipore) (10 nM), polyE4Y (1 mg/mL), MgCl2 (10 mM), pyruvate kinase (4 units), lactate dehydrogenase (0.7 units), phosphoenol pyruvate (1 mM), NADH (0.28 mM) and ATP (500 μM) in 90 mM Tris buffer containing 0.2% octyl-glucoside and 1% DMSO, pH 7.5. The inhibition reaction was started by mixing serial diluted test compound with the above reaction mixture. The absorption at 340 nm was monitored continuously for 4 hours at 30° C. on Synergy 2 plate reader. The reaction rate was calculated using the 3 to 4 h time frame. Percent inhibition was obtained by comparison of reaction rate with that of a control (i.e. in the absence of test compound). IC50 values were calculated from a series of percent inhibition values determined at a range of inhibitor concentrations using software routines as implemented in the GraphPad Prism software package.

[4] = molecular target: T4, phospho-FMS in THP-1 cells (Homo sapiens, UniProt P07333); test: Phospho-FMS ELISA assay in THP-1 cells; assay type: cell-based; conditions: 4 hours compound, M-CSF stimulation 5 minutes, read-out: pFMS inhibition in THP-1 cells
T4 construct: endogenous in cells; host or cells: THP-1 (ATCC TIB-202)
T4 sequence (P07333 20-972): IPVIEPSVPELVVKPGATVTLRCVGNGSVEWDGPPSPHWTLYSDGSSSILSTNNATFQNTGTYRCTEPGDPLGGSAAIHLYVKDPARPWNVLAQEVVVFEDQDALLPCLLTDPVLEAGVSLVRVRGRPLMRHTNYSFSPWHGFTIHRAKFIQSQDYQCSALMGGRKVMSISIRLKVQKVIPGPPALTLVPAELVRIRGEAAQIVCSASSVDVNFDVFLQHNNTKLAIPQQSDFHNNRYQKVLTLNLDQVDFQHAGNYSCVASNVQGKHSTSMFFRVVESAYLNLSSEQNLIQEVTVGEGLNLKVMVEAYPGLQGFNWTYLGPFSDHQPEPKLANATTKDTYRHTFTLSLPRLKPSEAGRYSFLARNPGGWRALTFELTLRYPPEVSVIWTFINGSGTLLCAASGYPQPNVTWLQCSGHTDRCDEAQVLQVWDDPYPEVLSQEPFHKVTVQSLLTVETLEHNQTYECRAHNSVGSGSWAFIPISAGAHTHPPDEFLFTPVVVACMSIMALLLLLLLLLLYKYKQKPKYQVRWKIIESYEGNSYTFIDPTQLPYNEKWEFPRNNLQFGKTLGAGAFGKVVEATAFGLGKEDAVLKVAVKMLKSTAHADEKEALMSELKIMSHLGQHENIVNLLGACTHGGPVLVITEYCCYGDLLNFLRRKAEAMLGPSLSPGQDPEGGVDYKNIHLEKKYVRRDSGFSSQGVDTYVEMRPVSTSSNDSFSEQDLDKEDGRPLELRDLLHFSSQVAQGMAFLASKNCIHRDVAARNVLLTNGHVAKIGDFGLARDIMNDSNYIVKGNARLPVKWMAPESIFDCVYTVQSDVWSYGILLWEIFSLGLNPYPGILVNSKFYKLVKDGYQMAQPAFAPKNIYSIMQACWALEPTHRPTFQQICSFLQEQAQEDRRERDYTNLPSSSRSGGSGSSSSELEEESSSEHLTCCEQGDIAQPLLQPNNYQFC
Experimental: Cells were allowed to expand until reaching 70-95% confluency at which point they were subcultured or harvested for assay use.
In a separate 96 well black clear bottom plate, one hundred and fifty thousand THP-1 cells were added per well in 100 μL in assay medium. Fifty microliters of diluted compound was then added to the cells. Plates were incubated for 4 hours at 37 degrees Celsius, 5% CO2, 95% humidity. […] Lysates were prepared and used to perform the phospho-FMS ELISA as described by the manufacturer (catalog #DYC3268, R & D Systems, Minneapolis, Minn.). GraphPad Prism was used to calculate IC50 values obtained from data generated from the ELISA assay.

M-NFS-60 cells = test: M-NFS-60 cell proliferation assay (resazurin); assay type: cell-based; conditions: 67 h incubation
Experimental: M-NFS-60 cells (catalog #CRL-1838) were obtained from the American Type Culture Collection (ATCC, Manassas, Va.). Briefly, cells were grown in suspension in RPMI 1640 medium supplemented with 10% characterized fetal bovine serum (Invitrogen, Carlsbad, Calif.), 0.05 mM 2-mercaptoethanol, and 20 ng/mL mouse recombinant macrophage colony stimulating factor (M-CSF) at 37° C., 5% CO2, and 95% humidity. Cells were allowed to expand until reaching saturation at which point they were subcultured or harvested for assay use.
M-NFS-60 Cell Proliferation Assay
A serial dilution of test compound was dispensed into a 384-well black clear bottom plate (Corning, Corning, N.Y.). Two thousand five hundred cells were added per well in 50 μL complete growth medium. Plates were incubated for 67 h at 37° C., 5% CO2, and 95% humidity. At the end of the incubation period 10 μL of a 440 µM solution of resazurin (Sigma, St. Louis, Mo.) in PBS was added to each well and incubated for an additional 5 h at 37° C., 5% CO2, and 95% humidity. Plates were read on a Synergy2 reader (Biotek, Winooski, Vt.) using an excitation of 540 nm and an emission of 600 nm. IC50 values were calculated from a series of percent inhibition values determined at a range of inhibitor concentrations using software routines as implemented in the GraphPad Prism software package.

[5] = enzymatic assay, ATP 2000 μM, read-out: uKIT

SMILES: Cc1nc(-c2cnc(NC(C)C)n(C)c2=O)ccc1Oc1ccnc(-c2cnn(C)c2)c1 [Example 10, 2-(isopropylamino)-3-methyl-5-(6-methyl-5-((2-(1-methyl-1H-pyrazol-4-yl)pyridin-4-yl)oxy)pyridin-2-yl)pyrimidin-4(3H)-one]
- IC50 (osteoclast precursors): < 0.01 µM
- IC50 [1]: > 1 µM
- IC50 [2]: 0.1 to 1 µM
- lesion score (PC-3 M-luc cells): 2

SMILES: COC[C@@H](C)Nc1ncc(-c2ccc(Oc3ccnc(-c4cnn(C)c4)c3)c(C)n2)c(=O)[nH]1 [Example 22, (R)-2-((1-methoxypropan-2-yl)amino)-5-(6-methyl-5-((2-(1-methyl-1H-pyrazol-4-yl)pyridin-4-yl)oxy)pyridin-2-yl)pyrimidin-4(3H)-one]
- IC50 (osteoclast precursors): < 0.01 µM
- IC50 [3]: 0.01 to 0.1 µM
- IC50 [4]: 0.1 to 1 µM
- IC50 [1]: > 1 µM
- IC50 (M-NFS-60 cells): 0.01 to 0.1 µM
- IC50 [2, 5]: > 1 µM

SMILES: CCNc1ncc(-c2ccc(Oc3ccnc(-c4cnn(C)c4)c3)c(C)n2)c(=O)n1C [Example 25, 2-(ethylamino)-3-methyl-5-(6-methyl-5-((2-(1-methyl-1H-pyrazol-4-yl)pyridin-4-yl)oxy)pyridin-2-yl)pyrimidin-4(3H)-one]
- IC50 (osteoclast precursors): 0.01 to 0.1 µM
- IC50 [3]: 0.01 to 0.1 µM
- IC50 [4]: 0.01 to 0.1 µM
- IC50 [1]: > 1 µM
- IC50 (M-NFS-60 cells): 0.01 to 0.1 µM
- IC50 [2, 5]: 0.1 to 1 µM

SMILES: Cc1nc(-c2cnc(NC(C)(C)C)[nH]c2=O)ccc1Oc1ccnc(-c2cnn(C)c2)c1 [Example 28, 2-(tert-butylamino)-5-(6-methyl-5-((2-(1-methyl-1H-pyrazol-4-yl)pyridin-4-yl)oxy)pyridin-2-yl)pyrimidin-4(3H)-one]
- IC50 (osteoclast precursors): 0.01 to 0.1 µM
- IC50 [3]: < 0.01 µM
- IC50 [4]: 0.01 to 0.1 µM
- IC50 [1]: 0.01 to 0.1 µM
- IC50 (M-NFS-60 cells): 0.01 to 0.1 µM
- IC50 [2, 5]: 0.01 to 0.1 µM

SMILES: Cc1nc(-c2cnc(NCC(C)(C)C)[nH]c2=O)ccc1Oc1ccnc(-c2cnn(C)c2)c1 [Example 29, 5-(6-methyl-5-((2-(1-methyl-1H-pyrazol-4-yl)pyridin-4-yl)oxy)pyridin-2-yl)-2-(neopentylamino)pyrimidin-4(3H)-one]
- IC50 (osteoclast precursors): 0.01 to 0.1 µM
- IC50 [3]: < 0.01 µM
- IC50 [4]: 0.01 to 0.1 µM
- IC50 [1]: 0.1 to 1 µM
- IC50 (M-NFS-60 cells): 0.01 to 0.1 µM
- IC50 [2, 5]: 0.01 to 0.1 µM

SMILES: Cc1nc(-c2cnc(N3CCC(F)(F)C3)[nH]c2=O)ccc1Oc1ccnc(-c2cnn(C)c2)c1 [Example 30, 2-(3,3-difluoropyrrolidin-1-yl)-5-(6-methyl-5-((2-(1-methyl-1H-pyrazol-4-yl)pyridin-4-yl)oxy)pyridin-2-yl)pyrimidin-4(3H)-one]
- IC50 (osteoclast precursors): 0.01 to 0.1 µM
- IC50 [3]: 0.01 to 0.1 µM
- IC50 [4]: 0.01 to 0.1 µM
- IC50 [1]: > 1 µM
- IC50 (M-NFS-60 cells): 0.1 to 1 µM
- IC50 [2, 5]: > 1 µM
